Source: patent publication US10112943B2, “Substituted imidazoles as gamma secretase modulators” (Janssen Pharmaceutica NV, priority 2012, dated 2018)

Experiments:
γ-secretase = target: T1, γ-secretase (Homo sapiens, UniProt P49768); test: Screening for γ-secretase-modulating activity: Aβ42 in cell supernatant (Alphalisa sandwich immuno-assay); format: cell-based; settings: SKNBE2 human neuroblastoma cells carrying hAPP 695-wild type, overnight incubation
T1 construct: endogenous in cells; host or cells: SKNBE2 human neuroblastoma cells carrying hAPP 695 wild type
Description: A) Screening of the Compounds of the Invention for γ-Secretase-Modulating Activity
Screening was carried out using SKNBE2 human neuroblastoma cells carrying the hAPP 695-wild type, grown in Dulbecco's Modified Eagle's Medium/Nutrient mixture F-12 (DMEM/NUT-mix F-12) (HAM) provided by Invitrogen (cat no. 10371-029) containing 5% Serum/Fe supplemented with 1% non-essential amino acids, 1-glutamine 2 mM, Hepes 15 mM, penicillin 50 U/ml (units/ml) and streptomycin 50 μg/ml. Cells were grown to near confluency.
The screening was performed using a modification of the assay as described in Citron et al (1997) Nature Medicine 3: 67. Briefly, cells were plated in a 384-well plate at 10^4 cells/well in Ultraculture (Lonza, BE12-725F) supplemented with 1% glutamine (Invitrogen, 25030-024), 1% non-essential amino acid (NEAA), penicillin 50 U/ml en streptomycin 50 μg/ml in the presence of test compound at different test concentrations. The cell/compound mixture was incubated overnight at 37° C., 5% CO2. The next day the media were assayed by two sandwich immuno-assays, for Aβ42 and Aβtotal.
Aβtotal and Aβ42 concentrations were quantified in the cell supernatant using the Aphalisa technology (Perkin Elmer). Alphalisa is a sandwich assay using biotinylated antibody attached to streptavidin coated donorbeads and antibody conjugated to acceptor beads. In the presence of antigen, the beads come into close proximity. The excitation of the donor beads provokes the release of singlet oxygen molecules that trigger a cascade of energy transfer in the acceptor beads, resulting in light emission. To quantify the amount of Aβ42 in the cell supernatant, monoclonal antibody specific to the C-terminus of Aβ42 (JRF/cAβ42/26) was coupled to the receptor beads and biotinylated antibody specific to the N-terminus of Aβ (JRF/AβN/25) was used to react with the donor beads. To quantify the amount of Aβtotal in the cell supernatant, monoclonal antibody specific to the N-terminus of Aβ (JRF/AβN/25) was coupled to the receptor beads and biotinylated antibody specific to the mid region of Aβ (biotinylated 4G8) was used to react with the donor beads.
To obtain the values reported in Table 3, the data are calculated as percentage of the maximum amount of amyloid Beta 42 measured in the absence of the test compound.
The sigmoidal dose response curves were analyzed using non-linear regression analysis with percentage of the control plotted against the log concentration of the compound. A 4-parameter equation was used to determine the IC50.

Aβ40 = test: In vivo efficacy: brain levels of soluble Aβ40 in non-transgenic rodents (MSD electrochemiluminescence); design: species or system mouse; settings: dose 30 mg/kg oral dosing, soluble fraction, untreated animals (Ctrl) set at 100, typical protocol 4 h after dose
Description: To determine whether acute administration of an Aβ42 lowering agent would reduce Aβ42 levels in vivo, non-transgenic rodents, e.g. mice or rats were used. Animals treated with the Aβ42 lowering agent were examined and compared to those untreated or treated with vehicle and brain levels of soluble Aβ42, Aβ40, Aβ38, and Aβ37 were quantitated by Meso Scale Discovery's (MSD) electrochemiluminescence detection technology. Treatment periods varied from hours (h) to days and were adjusted based on the results of the Aβ42 lowering once a time course of onset of effect could be established.
A typical protocol for measuring Aβ42 lowering in vivo is shown but it is only one of many variations that could be used to optimize the levels of detectable Aβ. […] After 4 h, the animals were sacrificed and Aβ42 levels were analysed.
Blood was collected by decapitation and exsanguinations in EDTA-treated collection tubes. […] The left hemisphere was stored at −18° C. for quantitative analysis of test compound levels. […]
Mouse brains from non-transgenic animals were resuspended in 8 volumes of 0.4% DEA (diethylamine)/50 mM NaCl containing protease inhibitors (Roche-11873580001 or 04693159001) per gram of tissue, e.g. for 0.158 g brain, add 1.264 ml of 0.4% DEA. […] Nine parts of supernatant were neutralized with 1 part 0.5 M Tris-HCl pH 6.8 and used to quantify Aβ. […]

- IC50 (γ-secretase): 50 nM
- melting point: 254.8 °C
SMILES: Cc1cn(-c2ccc3n(c2=O)C[C@@H]2CC[C@@H](Cc4cc(C(F)(F)F)cc(C(F)(F)F)c4)N2C3=O)cn1 (single isomer, unassigned) [Compound 4, 3-[[3,5-bis(trifluoromethyl)phenyl]methyl]-2,3,11,11a-tetrahydro-8-(4-methyl-1H-imidazol-1-yl)-1H-pyrido[1,2-a]pyrrolo[1,2-d]pyrazine-5,9-dione ((3S, 11aS) or (3R, 11aR))]
- Aβ40 (% vs Ctrl) _Mean (Aβ40): 69 % vs Ctrl
